The target in one assay is YB-1 (Homo sapiens, UniProt P67809). The assay is described as follows: Cellular Thermal Shift Assay (CETSA) in OVCAR8 cells. Also on record: endogenous in cells; host or cells: OVCAR8. The note with it: SU056 2.5 μM, 1.5 h, read-out: increase in thermal stability (Tm shift) of YB-1. Format: binding. The protocol: The cellular thermal shift assay (CETSA) is based on the principle of protein-ligand interactions causing a shift in protein thermal stability (Savitski et al., 2014). When a protein interacts with ligand, its thermal stability increases, and this principle allows identification of which protein targets that are engaged by small molecules or drug candidates. We used this assay to identify protein targets of SU056. OVCAR8 cells were treated with SU056 (2.5 μM) for 1.5 h, and protein lysates were analyzed for a thermal shift. The heat maps represent the thermal stability of 804 soluble proteins in the presence and absence of SU056 compare with 37° C. (FIG. 3A).
YB-1, sequence (P67809 whole entry): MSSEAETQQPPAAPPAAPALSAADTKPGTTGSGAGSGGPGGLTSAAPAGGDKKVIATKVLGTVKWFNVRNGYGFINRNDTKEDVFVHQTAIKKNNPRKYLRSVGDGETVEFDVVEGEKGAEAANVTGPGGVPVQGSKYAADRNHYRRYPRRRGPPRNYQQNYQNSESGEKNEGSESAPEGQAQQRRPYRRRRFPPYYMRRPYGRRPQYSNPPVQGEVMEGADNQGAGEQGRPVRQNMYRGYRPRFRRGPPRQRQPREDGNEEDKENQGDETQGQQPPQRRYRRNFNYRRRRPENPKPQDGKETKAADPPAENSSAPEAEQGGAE
Cellular Thermal Shift Assay (CETSA): The assay was performed as previously described (Savitski et al., 2014). Briefly, OVCAR8 cells were treated with vehicle (DMSO) or SU056 (2.5 μM) at 70-80% confluency for 1.5 h. Cells were harvested and washed with 1×PBS twice. Cells were pelleted and resuspended in PBS. 10 different PCR tubes with 1×10^6 cells/tube (in 100 μL PBS) were prepared for both the groups. Tubes were exposed to respective temperatures (37, 41, 44, 47, 50, 53, 56, 59, 63, 67° C.) for 3 min using a thermal cycler (Bio-Rad, CA, USA) followed by 2 min incubation at room temperature.

Assay [1] concerns YB-1, TMSB10, SUMO2 and PMSB2 proteins. The experiment in a line: Western blot of CETSA targets in OVCAR8 cells. The format is cell-based, human. The note with it: 1, 2.5 and 5 μM for 12 h. On the procedure: Out of six targets identified, we selected proteins whose thermal shift is above 5° in the presence of SU056 for further study of protein expression after treatment. […] To study the in vivo effects of SU056 treatment, we analyzed ID8 tumor xenograft samples via immunohistochemistry (IHC). […] To identify the broader effects of SU056 on YB-1 and its downstream protein/activity in different ovarian cancer cell lines, we selected six different cell lines and treated them with SU056 (2.5 μM) for 12 h. Cells were analyzed for YB-1 and CD44 expression and Multidrug resistance 1 (MDR1, ABC pump mediated efflux). […] OVCAR4, OVCAR8, and SKOV3 cells were treated with SU056 (1, 2.5, and 5 μM) for 3, 6, 12, and 24 h and YB-1 expression was measured using YB-1 ELISA. […]
Immunoblotting: Once 70% confluency of OC cells plated in 100 mm cell culture was obtained, dishes were treated with a respective concentration of SU056 for a respective time. […] Proteins were detected using Immobilon® Crescendo Western HRP Substrate (Millipore, Germany) and visualized on an IVIS Lumina Imaging System (Perkin Elmer, Waltham, MA).
FIGS. 4A-4E: SU056 inhibits YB-1. […] FIG. 4C) Respective OC cells were treated with 2.5 μM SU056 for 12 h and YB-1 & CD44 expression and multidrug resistance activity was measured as described in the ‘method’ section. […]

Assay [2] concerns Multidrug resistance 1 (MDR1, ABC pump mediated efflux). The experiment in a line: Multidrug Resistance Assay (fluorometric MDR assay). Format: cell-based. The note with it: 2.5 μM for 12 h; six different OC cell lines. On the procedure: Out of six targets identified, we selected proteins whose thermal shift is above 5° in the presence of SU056 for further study of protein expression after treatment. […] To study the in vivo effects of SU056 treatment, we analyzed ID8 tumor xenograft samples via immunohistochemistry (IHC). […] To identify the broader effects of SU056 on YB-1 and its downstream protein/activity in different ovarian cancer cell lines, we selected six different cell lines and treated them with SU056 (2.5 μM) for 12 h. Cells were analyzed for YB-1 and CD44 expression and Multidrug resistance 1 (MDR1, ABC pump mediated efflux). […] Finally, we tested the time kinetics and dose-dependent effects of SU056 on YB-1 expression. OVCAR4, OVCAR8, and SKOV3 cells were treated with SU056 (1, 2.5, and 5 μM) for 3, 6, 12, and 24 h and YB-1 expression was measured using YB-1 ELISA. […] 5 μM treatment for 24 h inhibited YB-1 completely (100%) in all three OC cells (FIG. 4E). […]
FIGS. 4A-4E: SU056 inhibits YB-1. […] FIG. 4C) Respective OC cells were treated with 2.5 μM SU056 for 12 h and YB-1 & CD44 expression and multidrug resistance activity was measured as described in the ‘method’ section. The % inhibition was calculated and compared to the control for the respective cell line. […]

For assay [3], the system named is OVCAR4, OVCAR5 and ID8 cells. The assay is described as follows: Cell viability (MTT) assay, ovarian cancer cell lines. Format: cell-based. As to conditions: 48 h of treatment. The text has this: (§1) We tested the relationship between AzPs dose and the viability of human ovarian cancer cell lines and the ID8 murine ovarian cancer cell line.
(§2) FIG. 1A) Lead optimization of SU093 to obtain SU056. FIG. 1B) IC50 values of SU093 and SU056 on various ovarian cancer cells. Clonogenic survival of OC cells treated with SU093 or SU056. […] FIG. 1C) Representative colony formation from respective wells. FIG. 1D) Number of colonies formed after SU093 and SU056 treatment. […] FIG. 1F) Cell cycle distribution of propidium iodide (PI)-stained OVCAR8, SKOV3, and ID8 cells. […] FIG. 1G) Effects of SU093 and SU056 on apoptotic cell death analyzed by Annexin-FITC staining. […] FIG. 1H) Cell migration assay.

Another assay concerns OVCAR8 YBX1-shRNA1 cells. The assay is described as follows: Cell viability assay, transduced OVCAR8 cells. As to conditions: Homo sapiens, OVCAR-8, read-out: IC50 (cell viability).
For a further assay, the system named is OVCAR-8 and ID8 cells. The assay is described as follows: Clonogenic assay. The format is cell-based. The protocol:
as §1
Clonogenic assay: 300 suspended OC cells were plated in each well of 12 well plates (Corning-Costar, #3598) and incubated for 24 h for attachment. The media was replaced after 24 h with media containing a respective concentration of the test compound and incubated for 5-8 days until visible colonies appeared in vehicle-treated wells. Cells were then washed and fixed with 2% paraformaldehyde, followed by washing and staining with 0.5% Crystal violet for 1 h. Cells were de-stained using DI water and allowed to dry. Colonies were counted under the microscope at 100× magnification.
as §2

Excerpt for OVCAR8 YBX1-shRNA1 cells: To check the dependency of SU056 activity on YB-1 expression, we also tested OVCAR8 cells transfected with YB-1 knockdown using transduction of lentiviral shRNA vectors. […] Furthermore, we also performed a cell viability assay using knockdown cells to calculate IC50 values.
Scrambled control (SC), YBX1 knockdown (1 & 2) and mCherry-YBX1 OVCAR8 cell lines were created using lentiviral based transduction and selected using puromycin resistance followed by cell shorting.
Cell viability assay: Cell viability was assessed using the standard MTT assay protocol. In brief, 5,000 cells were plated in each well of 96 well plates (Corning-Costar, #3598) and allowed to attach for 24 h. Cells were treated with a respective concentration of compounds for respective time points. A stock solution of each compound was prepared in DMSO. DMSO concentration was kept constant and maintained below 0.1%. After each incubation, 50 μL of 0.5 mg/ml MTT solution prepared in 1×PBS was added to each well followed by 1 h incubation at 37° C. and 5% CO2. MTT solution and media were then removed, and MTT formazan crystals were dissolved in 100 μL of DMSO per well. Absorbance at 570 nm for each well was recorded using a multimode plate reader to quantitate MTT crystallization. Each absorbance value was normalized to controls and converted into percent cell viability. […]

As a reminder, the IC50 is the midpoint of a concentration-inhibition curve. `O=C1OCC2=C1C(c1cccc(F)c1)c1cc3c(cc1N2CCO)OCO3` (stereo not drawn) [SU056, 9-(3-fluorophenyl)-5-(2-hydroxyethyl)-6,9-dihydro-[1,3]dioxolo[4,5-g]furo[3,4-b]quinolin-8(5H)-one]: the ΔTm at 2.5 µM at YB-1 was 5.92 ± 0.86 °C. Moreover, the “protein expression by Western blot” value in assay [1] is “inhibits the YB-1, TMSB10, SUMO2 and PMSB2 proteins in a dose-dependent manner”. Further, the “decrease in MDR expression” value in assay [2] is 41-63%. The “decrease of IC50 compared to SU093” value in assay [3] was “up to 2 fold”. Besides, in the assay with OVCAR8 YBX1-shRNA1 cells, the IC50 was 15.8 µM. Besides, the OC colony formation entry in the assay on OVCAR-8 and ID8 cells was “decreased OC colony formation in a dose-dependent and significant manner”.

These data come from patent publication US20240016784A1, “Y BOX BINDING PROTEIN 1 INHIBITORS” (Oregon Health & Science University, priority 2020, published 2024).
